Data reported in article PMC11931356, “New benzimidazole derivatives containing hydrazone group as anticancer agents: Inhibition of carbonic anhydrase IX and molecular docking studies” (Archiv Der Pharmazie, 2025).

Tests used:
[1] = test system: L929 (healthy mouse fibroblast cell line); assay: MTT cell viability assay, L929; format: cell-based; conditions: max 100 µM, mean ± SD
Description: (§1) Cell lines from the American Type Culture Collection (ATCC) were used to test the human breast adenocarcinoma cell line (MCF7), rat glial tumor (C6), healthy mouse fibroblast cell line (L929), and colon cancer (HT29). Cells were combined with solutions of 1% penicillin (Sigma Aldrich), 10% fetal bovine serum (FBS; Sigma Aldrich), and 89% DMEM (Dulbecco's modified Eagle's medium; Gibco, Thermo Fisher Scientific). The cells were incubated at 37°C with 95% humidity and 5% CO2 to allow the medium to develop.
(§2) All compounds were examined for their cytotoxic effects on the L929, HT29, MCF7, and C6 cell lines using MTT assay. Approximately 1 × 10^4 cells were seeded in each well. Cells were allowed to adhere for 24 h and then the syntheses were applied at different concentrations. All syntheses were run in three repetitions. Wells with a maximum of 100 µM product were incubated for 24 h. Cisplatin was used as the positive control, and all wells devoid of specimens served as negative controls. To identify metabolically active cells, the wells were incubated for 3 h at 37°C after being treated with MTT solution. Following the MTT interaction, DMSO solution was added to the wells after they had been drained. This solution was used to dissolve the formazan crystals, and a color shift indicated how many live cells were present in each well.

Ki67 [2] = assay: Immunofluorescent microscope analysis, Ki67 in HT29; format: cell-based; conditions: HT29 cell line, compared with the cisplatin-treated group
Description: (§3) Immunofluorescent microscope analysis was performed as in the previous study.^[ [33] ^]

Ki67 [3] = assay: Immunofluorescent microscope analysis, Ki67 in L929; format: cell-based, mouse; conditions: L929 cell line, compared with the cisplatin-treated group
Description: as §3

[4] = test system: human breast adenocarcinoma cell line (MCF7); assay: MTT cell viability assay, MCF7; format: cell-based; conditions: max 100 µM, mean ± SD
Description: as §1, §2

CA IX enzyme = assay: Carbonic anhydrase IX inhibition assay (ELISA kit, CA IX protein level); format: biochemical, human; conditions: for Concentration (CA IX protein level, ELISA): ELISA kit, Control 250,225, lower = stronger inhibition, p < 0.001; for Concantration hCA IX: supplement table, same ELISA values
Description: The CA IX inhibitor acetazolamide was used as a positive control.
CA‐IX level was measured using the DCA900, R&D Systems ELISA Kit. In brief, 100 μL samples were incubated with 50 μL assay buffer for 2 h at room temperature (RT) in a 96‐well plate. The well was then washed four times with 400 µL wash buffer. After 200 µL of a conjugate buffer incubated at room temperature for 2 hours, the plate was washed four times with wash buffer. It was then incubated with 200 µL of substrate buffer for 30 min at room temperature. After washing, 50 µL of the stop solution was used to terminate the reaction. The plate was read at 450 nm using an Epoch™ microplate spectrophotometer (BioTek). The concentration of CA IX protein in each sample was calculated using a standard curve.

HT29 (colon cancer) = assay: MTT cell viability assay, HT29; format: cell-based; conditions: max 100 µM, mean ± SD
Description: as §1, §2

BAX [5] = assay: RT-PCR expression profile, BAX in L929; format: cell-based, mouse; conditions: L929 cell lines, effective dose, 24 h, vs control group, p < 0.05
Description: (§4) Total RNA was first isolated from the cells to which effective doses of compounds 3d and/or 3j were applied at the 24th hour, by the kit protocols, and then cDNA was synthesized from this total RNA. The expression profiles of Caspase 3, BAX, and BCL‐2 genes from the cDNA samples obtained were analyzed with the RT‐PCR device by the kit protocol. Statistical analysis of the data with the ΔΔCT method was performed using the “RT2 profiler RT‐PCR Array Data Analysis version 3.5” (http://pcrdataanalysissabiosciences.com/pcr/arrayanalysis.php) software.

BAX [6] = assay: RT-PCR expression profile, BAX in HT29; format: cell-based; conditions: HT29 cell lines, effective dose, 24 h, vs control group, p < 0.05
Description: as §4

rat glial tumor (C6) = assay: MTT cell viability assay, C6; format: cell-based; conditions: 24 h incubation, max 100 µM, mean ± SD
Description: as §1, §2

BAX [7] = assay: RT-PCR expression profile, BAX in MCF7; format: cell-based, human; conditions: MCF7 cell lines, effective dose, 24 h, vs control group, p < 0.05
Description: as §4

Ki67 [8] = assay: Immunofluorescent microscope analysis, Ki67 in C6; format: cell-based, rat; conditions: C6 cell line, compared with the cisplatin-treated group
Description: as §3

BAX [9] = assay: RT-PCR expression profile, BAX in C6; format: cell-based, rat; conditions: C6 cell lines, effective dose, 24 h, vs control group, p < 0.05
Description: as §4

Ki67 [10] = assay: Immunofluorescent microscope analysis, Ki67 in MCF7; format: cell-based, human; conditions: MCF7 cell line, compared with the cisplatin-treated group
Description: as §3

Caspase 3 = assay: RT-PCR expression profile, Caspase 3 in C6; format: cell-based, rat; conditions: C6 cell lines, effective dose, 24 h, vs control group, p < 0.05
Description: as §4

[11] = Mus musculus, L929, 24 h incubation
[12] = Homo sapiens, MCF7, 24 h incubation
[13] = Homo sapiens, HT-29, 24 h incubation

Molecule	IC50 [4, 12]	Concentration (CA IX protein level, ELISA) (CA IX enzyme)	Concantration hCA IX (CA IX enzyme)	IC50 (HT29 (colon cancer); [13])	IC50 (rat glial tumor (C6); Rattus norvegicus)	IC50 [1, 11]	Ki67 immunolocalisation rate (Ki67 [2])	Ki67 immunolocalisation rate (Ki67 [3])	BAX expression increase (BAX [5])	BAX expression increase (BAX [6])	IC50 ([1]; 24 h incubation)	IC50 ([4]; 24 h incubation)	IC50 (HT29 (colon cancer); 24 h incubation)	IC50 (rat glial tumor (C6))	BAX expression increase (BAX [7])	Ki67 immunolocalisation rate (Ki67 [8])	BAX expression increase (BAX [9])	Ki67 immunolocalisation rate (Ki67 [10])	Caspase 3 expression increase (Caspase 3)
Cc1ccc(C=NNC(=O)c2ccc(-c3nc4cc(C#N)ccc4[nH]3)cc2)s1 [Compound 3j, 4‐(5‐Cyano‐1H‐benzo[d]imidazol‐2‐yl)‐N′‐[(5‐methylthiophen‐2‐yl)methylene]benzohydrazide]	> 100 µM	82,745 pg/mL	82,745 pg/ml	45.8 ± 15.6 µM	> 100 µM	> 100 µM	significantly decreased	significantly decreased	105.7 times	3.07 times	–	–	–	–	–	–	–	–	–
N.N.[Cl][Pt][Cl] [Cisplatin, reference compound]	–	–	–	–	–	–	–	–	–	–	88.8 ± 6.4 µM	29.6 ± 7.6 µM	59.4 ± 12.6 µM	39.4 ± 6.4 µM	–	–	–	–	–
N#Cc1ccc2[nH]c(-c3ccc(C(=O)NN=Cc4ccc([N+](=O)[O-])s4)cc3)nc2c1 [Compound 3i, 4‐(5‐Cyano‐1H‐benzo[d]imidazol‐2‐yl)‐N′‐[(5‐nitrothiophen‐2‐yl)methylene]benzohydrazide]	> 100 µM	92,225 pg/mL	92,225 pg/ml	> 100 µM	> 100 µM	> 100 µM	–	–	–	–	–	–	–	–	–	–	–	–	–
N#Cc1ccc2[nH]c(-c3ccc(C(=O)NN=Cc4ccncc4)cc3)nc2c1 [Compound 3e, 4‐(5‐Cyano‐1H‐benzo[d]imidazol‐2‐yl)‐N′‐[(pyridine‐4‐yl)methylene]benzohydrazide]	> 100 µM	120,225 pg/mL	120,225 pg/ml	> 100 µM	> 100 µM	> 100 µM	–	–	–	–	–	–	–	–	–	–	–	–	–
4‐(5‐Cyano‐1H‐benzo[d]imidazol‐2‐yl)‐N′‐[(imidazol‐2‐yl)methylene]benzohydrazide [Compound 3f]	–	93,975 pg/mL	93,975 pg/ml	–	–	–	–	–	–	–	> 100 µM	> 100 µM	> 100 µM	> 100 µM	–	–	–	–	–
Cc1ccc(C=NNC(=O)c2ccc(-c3nc4cc(C#N)ccc4[nH]3)cc2)o1 [Compound 3b, 4‐(5‐Cyano‐1H‐benzo[d]imidazol‐2‐yl)‐N′‐[(5‐methylfuran‐2‐yl)methylene]benzohydrazide]	88.4 ± 2.18 µM	175,225 pg/mL	175,225 pg/ml	89.6 ± 5.74 µM	> 100 µM	> 100 µM	–	–	–	–	–	–	–	–	–	–	–	–	–
N#Cc1ccc2[nH]c(-c3ccc(C(=O)NN=Cc4ccco4)cc3)nc2c1 [Compound 3a, 4‐(5‐Cyano‐1H‐benzo[d]imidazol‐2‐yl)‐N′‐[(furan‐2‐yl)methylene]benzohydrazide]	86.4 ± 1.28 µM	–	–	71.8 ± 3.68 µM	98.9 ± 7.94 µM	84.6 ± 9.6 µM	–	–	–	–	–	–	–	–	–	–	–	–	–

Now from value to molecule, other results behind:

IC50 [4, 12]	Concentration (CA IX protein level, ELISA) (CA IX enzyme)	Concantration hCA IX (CA IX enzyme)	IC50 (HT29 (colon cancer); [13])	IC50 (rat glial tumor (C6); Rattus norvegicus)	Molecule	IC50 [1, 11]	Ki67 immunolocalisation rate (Ki67 [2])	Ki67 immunolocalisation rate (Ki67 [3])	BAX expression increase (BAX [5])	BAX expression increase (BAX [6])	IC50 ([1]; 24 h incubation)	IC50 ([4]; 24 h incubation)	IC50 (HT29 (colon cancer); 24 h incubation)	IC50 (rat glial tumor (C6))	BAX expression increase (BAX [7])	Ki67 immunolocalisation rate (Ki67 [8])	BAX expression increase (BAX [9])	Ki67 immunolocalisation rate (Ki67 [10])	Caspase 3 expression increase (Caspase 3)
> 100 µM	150,225 pg/mL	150,225 pg/ml	90.6 ± 12.1 µM	> 100 µM	N#Cc1ccc2[nH]c(-c3ccc(C(=O)NN=Cc4ccc([N+](=O)[O-])o4)cc3)nc2c1 [Compound 3c, 4‐(5‐Cyano‐1H‐benzo[d]imidazol‐2‐yl)‐N′‐[(5‐nitrofuran‐2‐yl)methylene]benzohydrazide]	> 100 µM	–	–	–	–	–	–	–	–	–	–	–	–	–
25.6 ± 16.4 µM	83,975 pg/mL	83,975 pg/ml	39.1 ± 8.28 µM	20.5 ± 8.34 µM	Cc1ccsc1C=NNC(=O)c1ccc(-c2nc3cc(C#N)ccc3[nH]2)cc1 [Compound 3d, 4‐(5‐Cyano‐1H‐benzo[d]imidazol‐2‐yl)‐N′‐[(3‐methylthiophen‐2‐yl)methylene]benzohydrazide]	> 100 µM	significantly decreased	significantly decreased	–	6.59 times	–	–	–	–	12.55 times	significantly decreased	4.06 times	significantly decreased	2.75 times
> 100 µM	119,425 pg/mL	119,425 pg/ml	> 100 µM	> 100 µM	N#Cc1ccc2[nH]c(-c3ccc(C(=O)NN=Cc4cccnc4)cc3)nc2c1 [Compound 3h, 4‐(5‐Cyano‐1H‐benzo[d]imidazol‐2‐yl)‐N′‐[(pyridine‐3‐yl)methylene]benzohydrazide]	> 100 µM	–	–	–	–	–	–	–	–	–	–	–	–	–
> 100 µM	95,745 pg/mL	95,745 pg/ml	> 100 µM	> 100 µM	N#Cc1ccc2[nH]c(-c3ccc(C(=O)NN=Cc4cccs4)cc3)nc2c1 [Compound 3g, 4‐(5‐Cyano‐1H‐benzo[d]imidazol‐2‐yl)‐N′‐[(thiophen‐2‐yl)methylene]benzohydrazide]	> 100 µM	–	–	–	–	–	–	–	–	–	–	–	–	–
